Source: patent US8784804B2, “Nutraceutical composition that comprises extract of andean shilajit, for preventing and/or treating neurodegenerative diseases and/or the cognitive deterioration associated with cerebral aging” (Centro Internacional de Biomedicina (ICC), priority 2009, dated 2014)

Test system: neuroblastoma cells (N-115 cell line)
Assay: Shilajit's toxicity in nerve cell culture (MTT assay, calcein-AM)
Format: cell-based
Details: 10 mM H2O2, positive control of neuronal death
Method: The toxicity of the composition's main component was determined, whose toxicity in nerve cells was unknown up to now. This study consisted in the application of concentrations ranging from 10 to 50 mg/mL to a culture of neuroblastoma cells (N-115 cell line) (MTT assay) and subsequent observation of neuronal death through fluorescent microscopy using the calcein-AM method that determines the morphologic integrity.

OO [H2O2]
% neuronal death: 100.0% | A550: 0.050
